In ChEMBL document CHEMBL4507276 (2021):

What was measured:
[1] = biological target: Death-associated protein kinase 3 (Homo sapiens) (UniProt O43293); details: Compound concentration 1000.0 nM
[2] = biological target: Serine/threonine-protein kinase VRK2 (Homo sapiens) (UniProt Q86Y07); details: Compound concentration 1000.0 nM
[3] = biological target: T1, Serine/threonine-protein kinase DCLK2 (Homo sapiens) (UniProt Q8N568); experiment: DCAMKL2 Invitrogen selectivity data (BI); details: Compound concentration 3.0 uM
T1 sequence (whole entry): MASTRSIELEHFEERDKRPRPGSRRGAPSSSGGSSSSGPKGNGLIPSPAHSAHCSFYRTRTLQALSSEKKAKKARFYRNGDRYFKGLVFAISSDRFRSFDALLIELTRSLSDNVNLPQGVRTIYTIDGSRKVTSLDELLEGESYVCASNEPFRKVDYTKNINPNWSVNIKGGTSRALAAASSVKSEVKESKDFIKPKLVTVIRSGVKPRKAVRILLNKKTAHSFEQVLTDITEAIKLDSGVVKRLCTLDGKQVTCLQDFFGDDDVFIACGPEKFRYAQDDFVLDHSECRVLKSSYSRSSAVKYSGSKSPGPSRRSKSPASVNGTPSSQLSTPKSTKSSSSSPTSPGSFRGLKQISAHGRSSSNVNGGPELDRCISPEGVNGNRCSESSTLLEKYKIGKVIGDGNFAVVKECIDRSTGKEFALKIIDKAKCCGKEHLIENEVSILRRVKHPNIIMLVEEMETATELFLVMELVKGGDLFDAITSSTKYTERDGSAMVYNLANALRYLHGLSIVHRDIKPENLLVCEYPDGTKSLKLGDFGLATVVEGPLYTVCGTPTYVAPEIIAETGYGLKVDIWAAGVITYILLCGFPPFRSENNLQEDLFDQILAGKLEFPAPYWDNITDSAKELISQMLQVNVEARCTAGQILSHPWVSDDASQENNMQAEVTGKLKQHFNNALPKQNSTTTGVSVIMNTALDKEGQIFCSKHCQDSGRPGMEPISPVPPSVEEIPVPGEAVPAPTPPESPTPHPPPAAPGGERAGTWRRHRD

[4] = biological target: Epithelial discoidin domain-containing receptor 1 (Homo sapiens) (UniProt Q08345); experiment: DDR1 Invitrogen selectivity data (BI); details: Compound concentration 3.0 uM
Epithelial discoidin domain-containing receptor 1 (Homo sapiens), sequence (Q08345 whole entry, the tested form may be a part): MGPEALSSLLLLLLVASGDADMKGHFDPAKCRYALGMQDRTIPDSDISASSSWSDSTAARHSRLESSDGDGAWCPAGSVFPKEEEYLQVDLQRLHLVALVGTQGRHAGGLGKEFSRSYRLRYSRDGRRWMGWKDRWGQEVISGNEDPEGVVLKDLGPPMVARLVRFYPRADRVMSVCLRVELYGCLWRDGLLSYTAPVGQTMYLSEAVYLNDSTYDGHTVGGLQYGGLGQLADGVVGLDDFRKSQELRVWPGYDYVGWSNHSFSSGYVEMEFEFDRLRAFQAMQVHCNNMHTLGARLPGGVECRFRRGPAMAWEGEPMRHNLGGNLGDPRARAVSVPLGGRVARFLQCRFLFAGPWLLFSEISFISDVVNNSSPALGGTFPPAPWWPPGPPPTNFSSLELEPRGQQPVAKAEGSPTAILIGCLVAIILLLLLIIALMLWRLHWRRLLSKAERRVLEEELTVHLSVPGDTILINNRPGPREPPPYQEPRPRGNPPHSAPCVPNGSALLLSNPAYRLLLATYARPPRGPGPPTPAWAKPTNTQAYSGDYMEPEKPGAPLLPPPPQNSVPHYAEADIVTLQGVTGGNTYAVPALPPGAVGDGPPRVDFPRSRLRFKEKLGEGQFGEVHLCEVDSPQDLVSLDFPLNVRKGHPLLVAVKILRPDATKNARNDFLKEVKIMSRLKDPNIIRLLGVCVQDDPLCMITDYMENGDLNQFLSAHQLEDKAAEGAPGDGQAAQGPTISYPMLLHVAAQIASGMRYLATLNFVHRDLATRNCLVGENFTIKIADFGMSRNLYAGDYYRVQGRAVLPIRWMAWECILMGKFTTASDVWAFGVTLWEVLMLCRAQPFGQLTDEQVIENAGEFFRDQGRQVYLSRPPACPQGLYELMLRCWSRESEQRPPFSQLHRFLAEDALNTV

[5] = biological target: Histamine H4 receptor (Homo sapiens) (UniProt Q9H3N8); experiment: H4/H AG Cerep selectivity data (BI); details: filed as agonist, Compound concentration 20.0 uM
Histamine H4 receptor (Homo sapiens), sequence (Q9H3N8 whole entry): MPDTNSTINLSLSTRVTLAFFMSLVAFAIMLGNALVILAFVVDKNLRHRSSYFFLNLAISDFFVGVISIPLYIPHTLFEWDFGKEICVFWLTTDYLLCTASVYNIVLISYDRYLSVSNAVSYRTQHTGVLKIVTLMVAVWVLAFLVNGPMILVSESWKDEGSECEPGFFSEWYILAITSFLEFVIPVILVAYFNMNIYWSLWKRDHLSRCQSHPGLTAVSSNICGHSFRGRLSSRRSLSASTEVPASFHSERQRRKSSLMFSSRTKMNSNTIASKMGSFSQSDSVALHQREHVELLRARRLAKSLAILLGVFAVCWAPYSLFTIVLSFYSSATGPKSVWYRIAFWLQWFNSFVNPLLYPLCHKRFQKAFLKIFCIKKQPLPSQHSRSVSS

[6] = biological target: Peroxisome proliferator-activated receptor gamma (Homo sapiens) (UniProt P37231); experiment: PPARG/H AG Cerep selectivity data (BI); details: filed as agonist, Compound concentration 20.0 uM
[7] = biological target: Mitogen-activated protein kinase kinase kinase kinase 4 (Homo sapiens) (UniProt O95819); experiment: MAP4K4 Invitrogen selectivity data (BI); details: Compound concentration 3.0 uM
Mitogen-activated protein kinase kinase kinase kinase 4 (Homo sapiens), sequence (O95819 2-1239 limits assumed): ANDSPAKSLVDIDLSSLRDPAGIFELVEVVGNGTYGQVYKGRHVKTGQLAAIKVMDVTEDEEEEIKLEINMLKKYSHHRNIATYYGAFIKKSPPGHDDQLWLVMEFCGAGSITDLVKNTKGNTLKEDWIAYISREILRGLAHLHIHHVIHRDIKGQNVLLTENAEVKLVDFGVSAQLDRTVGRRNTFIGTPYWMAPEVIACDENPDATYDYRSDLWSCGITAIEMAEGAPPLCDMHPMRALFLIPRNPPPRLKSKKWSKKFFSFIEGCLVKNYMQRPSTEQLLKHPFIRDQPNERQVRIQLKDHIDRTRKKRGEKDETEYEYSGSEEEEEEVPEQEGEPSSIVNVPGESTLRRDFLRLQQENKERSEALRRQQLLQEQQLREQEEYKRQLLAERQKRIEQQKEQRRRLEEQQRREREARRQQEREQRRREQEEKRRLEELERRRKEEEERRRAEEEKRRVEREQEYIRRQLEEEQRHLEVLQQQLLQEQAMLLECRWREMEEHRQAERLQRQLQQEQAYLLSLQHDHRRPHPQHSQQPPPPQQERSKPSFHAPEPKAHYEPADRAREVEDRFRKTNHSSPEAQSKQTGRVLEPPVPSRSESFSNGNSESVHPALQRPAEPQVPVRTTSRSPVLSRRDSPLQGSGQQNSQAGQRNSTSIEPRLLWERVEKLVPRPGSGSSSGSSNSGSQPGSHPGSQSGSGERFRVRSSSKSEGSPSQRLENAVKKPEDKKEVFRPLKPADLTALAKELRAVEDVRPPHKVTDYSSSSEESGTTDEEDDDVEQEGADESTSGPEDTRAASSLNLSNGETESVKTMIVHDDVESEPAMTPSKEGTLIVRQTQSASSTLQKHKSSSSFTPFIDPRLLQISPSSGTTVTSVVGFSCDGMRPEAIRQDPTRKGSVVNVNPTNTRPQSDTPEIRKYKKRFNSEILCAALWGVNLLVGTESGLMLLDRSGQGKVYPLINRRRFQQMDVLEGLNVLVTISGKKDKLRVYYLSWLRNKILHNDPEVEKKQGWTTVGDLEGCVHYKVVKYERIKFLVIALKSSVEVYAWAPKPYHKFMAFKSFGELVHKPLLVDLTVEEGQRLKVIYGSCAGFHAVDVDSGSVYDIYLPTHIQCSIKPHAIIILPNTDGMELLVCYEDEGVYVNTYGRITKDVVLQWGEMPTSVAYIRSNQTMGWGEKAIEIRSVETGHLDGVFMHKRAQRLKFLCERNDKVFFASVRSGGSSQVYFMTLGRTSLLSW

[8] = biological target: Casein kinase I isoform gamma-2 (Homo sapiens) (UniProt P78368); experiment: CSNK1G2 Invitrogen selectivity data (BI); details: Compound concentration 3.0 uM
Casein kinase I isoform gamma-2 (Homo sapiens), sequence (P78368 whole entry, looked up, canonical isoform): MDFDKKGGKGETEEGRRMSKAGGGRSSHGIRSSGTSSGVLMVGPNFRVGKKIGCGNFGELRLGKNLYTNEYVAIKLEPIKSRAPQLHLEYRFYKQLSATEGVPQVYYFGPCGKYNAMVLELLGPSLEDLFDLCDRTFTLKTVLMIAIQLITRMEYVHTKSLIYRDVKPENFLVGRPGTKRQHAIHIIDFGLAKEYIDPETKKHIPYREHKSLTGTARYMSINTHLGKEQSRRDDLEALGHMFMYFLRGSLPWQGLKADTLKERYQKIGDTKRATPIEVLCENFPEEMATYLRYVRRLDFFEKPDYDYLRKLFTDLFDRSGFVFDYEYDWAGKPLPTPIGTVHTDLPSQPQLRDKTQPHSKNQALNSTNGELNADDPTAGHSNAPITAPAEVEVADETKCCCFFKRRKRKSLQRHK

[9] = biological target: Insulin-like growth factor 1 receptor (Homo sapiens) (UniProt P08069); experiment: IGF1R Invitrogen selectivity data (BI); details: Compound concentration 3.0 uM
[10] = biological target: Prostaglandin G/H synthase 2 (Homo sapiens) (UniProt P35354); experiment: COX2_HU Cerep selectivity data (BI); details: Compound concentration 20.0 uM
[11] = test system: Epidermal growth factor receptor (Homo sapiens), P00533 [L861Q]; experiment: EGFR L861Q Invitrogen selectivity data (BI); details: Compound concentration 3.0 uM
[12] = biological target: 72 kDa type IV collagenase (Homo sapiens) (UniProt P08253); experiment: MMP-2 (H) Cerep selectivity data (BI); details: Compound concentration 20.0 uM
72 kDa type IV collagenase (Homo sapiens), sequence (P08253 110-660 limits assumed): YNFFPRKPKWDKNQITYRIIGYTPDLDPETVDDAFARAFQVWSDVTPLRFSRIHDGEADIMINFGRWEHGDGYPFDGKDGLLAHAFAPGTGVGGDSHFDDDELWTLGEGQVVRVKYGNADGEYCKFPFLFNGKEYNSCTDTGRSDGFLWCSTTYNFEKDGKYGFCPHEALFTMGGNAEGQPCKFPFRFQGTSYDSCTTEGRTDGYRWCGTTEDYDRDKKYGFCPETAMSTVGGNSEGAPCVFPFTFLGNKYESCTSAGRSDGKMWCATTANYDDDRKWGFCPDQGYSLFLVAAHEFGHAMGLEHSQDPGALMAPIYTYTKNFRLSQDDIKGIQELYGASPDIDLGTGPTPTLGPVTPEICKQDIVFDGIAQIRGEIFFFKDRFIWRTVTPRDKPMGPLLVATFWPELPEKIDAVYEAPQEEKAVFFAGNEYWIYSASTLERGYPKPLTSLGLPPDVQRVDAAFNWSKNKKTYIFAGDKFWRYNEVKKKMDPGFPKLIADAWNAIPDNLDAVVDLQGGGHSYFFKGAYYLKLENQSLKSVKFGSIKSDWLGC

[13] = biological target: Cyclin-dependent kinase 2/cyclin A (Homo sapiens) (UniProt P24941+P20248+P78396); experiment: CDK2/CYCLINA Invitrogen selectivity data (BI); format: protein-complex assay; details: Compound concentration 3.0 uM
[14] = biological target: Calcium/calmodulin-dependent protein kinase type II subunit beta (Homo sapiens) (UniProt Q13554); experiment: CAMK2B Invitrogen selectivity data (BI); details: Compound concentration 3.0 uM
Calcium/calmodulin-dependent protein kinase type II subunit beta (Homo sapiens), sequence (Q13554 whole entry): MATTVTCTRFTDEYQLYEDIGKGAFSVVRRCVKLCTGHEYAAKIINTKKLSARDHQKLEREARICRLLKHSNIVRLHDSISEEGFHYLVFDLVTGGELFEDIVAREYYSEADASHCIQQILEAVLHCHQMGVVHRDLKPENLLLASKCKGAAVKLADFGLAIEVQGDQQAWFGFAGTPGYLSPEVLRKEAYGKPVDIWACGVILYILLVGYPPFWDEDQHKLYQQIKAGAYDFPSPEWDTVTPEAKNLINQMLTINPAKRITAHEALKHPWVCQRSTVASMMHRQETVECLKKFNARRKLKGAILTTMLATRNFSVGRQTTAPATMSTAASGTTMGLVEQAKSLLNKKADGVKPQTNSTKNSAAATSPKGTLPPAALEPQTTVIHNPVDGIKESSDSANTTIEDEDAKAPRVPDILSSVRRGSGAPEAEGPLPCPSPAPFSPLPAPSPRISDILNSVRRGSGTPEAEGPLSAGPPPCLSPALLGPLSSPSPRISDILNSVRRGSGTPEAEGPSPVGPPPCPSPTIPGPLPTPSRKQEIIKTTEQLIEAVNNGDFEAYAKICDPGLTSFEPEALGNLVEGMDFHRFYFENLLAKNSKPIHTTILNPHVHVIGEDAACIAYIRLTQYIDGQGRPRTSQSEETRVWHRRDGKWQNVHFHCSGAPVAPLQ

[15] = biological target: T2, Serine/threonine-protein kinase Nek1 (Homo sapiens) (UniProt Q96PY6); experiment: NEK1 Invitrogen selectivity data (BI); details: Compound concentration 3.0 uM
T2 sequence (whole entry): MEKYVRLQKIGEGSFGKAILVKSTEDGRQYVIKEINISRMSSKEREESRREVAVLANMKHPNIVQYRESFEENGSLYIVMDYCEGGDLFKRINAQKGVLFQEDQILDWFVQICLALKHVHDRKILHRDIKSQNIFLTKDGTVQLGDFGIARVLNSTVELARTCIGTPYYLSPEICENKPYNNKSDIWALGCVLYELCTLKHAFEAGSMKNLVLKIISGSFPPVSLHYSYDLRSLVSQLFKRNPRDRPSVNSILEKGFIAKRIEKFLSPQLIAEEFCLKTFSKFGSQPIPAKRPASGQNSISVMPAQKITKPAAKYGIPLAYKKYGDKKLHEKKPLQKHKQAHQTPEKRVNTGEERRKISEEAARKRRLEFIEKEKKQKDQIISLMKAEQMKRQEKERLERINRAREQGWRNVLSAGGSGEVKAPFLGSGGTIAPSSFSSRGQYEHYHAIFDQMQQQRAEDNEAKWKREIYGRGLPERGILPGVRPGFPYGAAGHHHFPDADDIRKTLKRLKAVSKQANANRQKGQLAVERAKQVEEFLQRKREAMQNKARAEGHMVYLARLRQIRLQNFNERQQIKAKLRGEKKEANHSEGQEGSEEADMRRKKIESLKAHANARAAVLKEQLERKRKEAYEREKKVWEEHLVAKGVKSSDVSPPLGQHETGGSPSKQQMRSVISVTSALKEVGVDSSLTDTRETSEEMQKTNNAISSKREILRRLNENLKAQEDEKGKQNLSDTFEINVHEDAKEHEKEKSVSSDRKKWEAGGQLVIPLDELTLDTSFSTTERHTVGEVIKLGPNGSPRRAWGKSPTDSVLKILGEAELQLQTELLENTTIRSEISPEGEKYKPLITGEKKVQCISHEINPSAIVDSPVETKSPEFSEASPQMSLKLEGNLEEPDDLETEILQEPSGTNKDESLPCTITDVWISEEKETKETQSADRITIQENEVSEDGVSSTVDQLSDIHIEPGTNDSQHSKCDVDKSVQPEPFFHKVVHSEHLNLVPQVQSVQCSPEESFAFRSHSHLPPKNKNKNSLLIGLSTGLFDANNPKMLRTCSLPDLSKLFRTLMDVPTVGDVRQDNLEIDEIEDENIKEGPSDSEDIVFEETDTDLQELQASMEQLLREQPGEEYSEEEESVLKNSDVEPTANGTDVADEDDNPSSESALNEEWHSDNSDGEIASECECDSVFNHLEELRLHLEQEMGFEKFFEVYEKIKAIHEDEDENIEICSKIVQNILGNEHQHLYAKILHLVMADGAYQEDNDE

[16] = biological target: Epidermal growth factor receptor (Homo sapiens) (UniProt P00533); experiment: EGFR Invitrogen selectivity data (BI); details: Compound concentration 3.0 uM
[17] = biological target: Histamine H3 receptor (Homo sapiens) (UniProt Q9Y5N1); experiment: H3/NAMEH_H Cerep selectivity data (BI); details: filed as antagonist, Compound concentration 20.0 uM
Histamine H3 receptor (Homo sapiens), sequence (Q9Y5N1 whole entry): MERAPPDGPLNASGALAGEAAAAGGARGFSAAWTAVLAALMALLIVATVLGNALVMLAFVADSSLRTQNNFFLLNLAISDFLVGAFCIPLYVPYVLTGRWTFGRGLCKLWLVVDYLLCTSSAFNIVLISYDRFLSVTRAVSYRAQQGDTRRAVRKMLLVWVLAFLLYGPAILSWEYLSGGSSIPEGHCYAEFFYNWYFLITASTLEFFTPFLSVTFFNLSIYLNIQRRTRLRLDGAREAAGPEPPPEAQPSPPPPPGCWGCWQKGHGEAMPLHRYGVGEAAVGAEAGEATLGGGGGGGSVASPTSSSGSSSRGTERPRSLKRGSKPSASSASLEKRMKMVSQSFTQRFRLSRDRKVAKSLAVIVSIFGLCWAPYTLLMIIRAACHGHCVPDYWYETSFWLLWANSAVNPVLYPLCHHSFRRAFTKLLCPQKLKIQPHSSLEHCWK

[18] = biological target: Mitogen-activated protein kinase 3 (Homo sapiens) (UniProt P27361); experiment: MAPK3 Invitrogen selectivity data (BI); details: Compound concentration 3.0 uM
Mitogen-activated protein kinase 3 (Homo sapiens), sequence (P27361 whole entry): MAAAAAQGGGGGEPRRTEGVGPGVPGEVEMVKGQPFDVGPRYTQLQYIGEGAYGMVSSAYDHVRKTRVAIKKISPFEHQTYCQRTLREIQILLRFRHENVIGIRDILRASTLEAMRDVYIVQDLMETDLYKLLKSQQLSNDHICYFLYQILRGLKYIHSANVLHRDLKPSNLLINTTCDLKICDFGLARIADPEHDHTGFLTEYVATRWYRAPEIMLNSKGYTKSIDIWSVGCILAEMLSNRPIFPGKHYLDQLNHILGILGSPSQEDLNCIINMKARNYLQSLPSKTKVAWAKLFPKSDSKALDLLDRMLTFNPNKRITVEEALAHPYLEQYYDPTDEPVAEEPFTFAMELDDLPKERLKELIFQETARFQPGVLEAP

Measured: residual activity

CN(C)C(=O)Cn1cc(-c2nc(C3(c4ccc(-c5cnc(N)nc5)cc4)CC3)no2)cn1 [BI 0153]
inactive: [1] 92% | [2] 90%

CN(C)C(=O)Cn1cc(-c2nc([C@@](C)(c3ccc(-c4cnc(N)nc4)cc3)C3CC3)no2)cn1 [BI 665915]
inactive: [3] 97% | [4] 99% | [5] 109% | [6] 93% | [7] 96.5% | [8] 98.5% | [9] 99.5% | [10] 64% | [11] 98% | [12] 96% | [13] 100% | [14] 95% | [15] 104% | [16] 104% | [17] 108% | [18] 97%
